Results taken from US20230148214A1, “INDAZOLES AND AZAINDAZOLES AS LRRK2 INHIBITORS” (ESCAPE Bio, Inc., priority 2020, published 2023).

Columns and labels:
LRRK2 G2019S = molecular target: T1, LRRK2 G2019S (Homo sapiens, UniProt Q5S007, G2019S); assay: LRRK2 Kinase Activity Assay (LanthaScreen TR-FRET), G2019S; format: biochemical; conditions: recombinant G2019S-LRRK2, 25 μM ATP, 400 nM LRRKtide, 60 min; class symbols
T1 construct: purchased Life Technologies PV4881
How it was run: (§1)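 IC50 fitted to the compound-dependent loss of TR-FRET signal. Each kinase form, wild type or G2019S, phosphorylated the fluorescein-tagged ERM-derived LRRKtide in the presence of ATP and compound dilutions over 60 min at room temperature; quench contained 10 mM EDTA and 2 nM anti-pERM antibody (final).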

LRRK2 WT = molecular target: T2, LRRK2 WT (Homo sapiens, UniProt Q5S007); assay: LRRK2 Kinase Activity Assay (LanthaScreen TR-FRET), wild type; format: biochemical; conditions: recombinant wild type LRRK2, 25 μM ATP, 400 nM LRRKtide, 60 min
T2 construct: purchased Life Technologies PR8604B
How it was run: as §1

T1 sequence (Q5S007 whole entry G2019S): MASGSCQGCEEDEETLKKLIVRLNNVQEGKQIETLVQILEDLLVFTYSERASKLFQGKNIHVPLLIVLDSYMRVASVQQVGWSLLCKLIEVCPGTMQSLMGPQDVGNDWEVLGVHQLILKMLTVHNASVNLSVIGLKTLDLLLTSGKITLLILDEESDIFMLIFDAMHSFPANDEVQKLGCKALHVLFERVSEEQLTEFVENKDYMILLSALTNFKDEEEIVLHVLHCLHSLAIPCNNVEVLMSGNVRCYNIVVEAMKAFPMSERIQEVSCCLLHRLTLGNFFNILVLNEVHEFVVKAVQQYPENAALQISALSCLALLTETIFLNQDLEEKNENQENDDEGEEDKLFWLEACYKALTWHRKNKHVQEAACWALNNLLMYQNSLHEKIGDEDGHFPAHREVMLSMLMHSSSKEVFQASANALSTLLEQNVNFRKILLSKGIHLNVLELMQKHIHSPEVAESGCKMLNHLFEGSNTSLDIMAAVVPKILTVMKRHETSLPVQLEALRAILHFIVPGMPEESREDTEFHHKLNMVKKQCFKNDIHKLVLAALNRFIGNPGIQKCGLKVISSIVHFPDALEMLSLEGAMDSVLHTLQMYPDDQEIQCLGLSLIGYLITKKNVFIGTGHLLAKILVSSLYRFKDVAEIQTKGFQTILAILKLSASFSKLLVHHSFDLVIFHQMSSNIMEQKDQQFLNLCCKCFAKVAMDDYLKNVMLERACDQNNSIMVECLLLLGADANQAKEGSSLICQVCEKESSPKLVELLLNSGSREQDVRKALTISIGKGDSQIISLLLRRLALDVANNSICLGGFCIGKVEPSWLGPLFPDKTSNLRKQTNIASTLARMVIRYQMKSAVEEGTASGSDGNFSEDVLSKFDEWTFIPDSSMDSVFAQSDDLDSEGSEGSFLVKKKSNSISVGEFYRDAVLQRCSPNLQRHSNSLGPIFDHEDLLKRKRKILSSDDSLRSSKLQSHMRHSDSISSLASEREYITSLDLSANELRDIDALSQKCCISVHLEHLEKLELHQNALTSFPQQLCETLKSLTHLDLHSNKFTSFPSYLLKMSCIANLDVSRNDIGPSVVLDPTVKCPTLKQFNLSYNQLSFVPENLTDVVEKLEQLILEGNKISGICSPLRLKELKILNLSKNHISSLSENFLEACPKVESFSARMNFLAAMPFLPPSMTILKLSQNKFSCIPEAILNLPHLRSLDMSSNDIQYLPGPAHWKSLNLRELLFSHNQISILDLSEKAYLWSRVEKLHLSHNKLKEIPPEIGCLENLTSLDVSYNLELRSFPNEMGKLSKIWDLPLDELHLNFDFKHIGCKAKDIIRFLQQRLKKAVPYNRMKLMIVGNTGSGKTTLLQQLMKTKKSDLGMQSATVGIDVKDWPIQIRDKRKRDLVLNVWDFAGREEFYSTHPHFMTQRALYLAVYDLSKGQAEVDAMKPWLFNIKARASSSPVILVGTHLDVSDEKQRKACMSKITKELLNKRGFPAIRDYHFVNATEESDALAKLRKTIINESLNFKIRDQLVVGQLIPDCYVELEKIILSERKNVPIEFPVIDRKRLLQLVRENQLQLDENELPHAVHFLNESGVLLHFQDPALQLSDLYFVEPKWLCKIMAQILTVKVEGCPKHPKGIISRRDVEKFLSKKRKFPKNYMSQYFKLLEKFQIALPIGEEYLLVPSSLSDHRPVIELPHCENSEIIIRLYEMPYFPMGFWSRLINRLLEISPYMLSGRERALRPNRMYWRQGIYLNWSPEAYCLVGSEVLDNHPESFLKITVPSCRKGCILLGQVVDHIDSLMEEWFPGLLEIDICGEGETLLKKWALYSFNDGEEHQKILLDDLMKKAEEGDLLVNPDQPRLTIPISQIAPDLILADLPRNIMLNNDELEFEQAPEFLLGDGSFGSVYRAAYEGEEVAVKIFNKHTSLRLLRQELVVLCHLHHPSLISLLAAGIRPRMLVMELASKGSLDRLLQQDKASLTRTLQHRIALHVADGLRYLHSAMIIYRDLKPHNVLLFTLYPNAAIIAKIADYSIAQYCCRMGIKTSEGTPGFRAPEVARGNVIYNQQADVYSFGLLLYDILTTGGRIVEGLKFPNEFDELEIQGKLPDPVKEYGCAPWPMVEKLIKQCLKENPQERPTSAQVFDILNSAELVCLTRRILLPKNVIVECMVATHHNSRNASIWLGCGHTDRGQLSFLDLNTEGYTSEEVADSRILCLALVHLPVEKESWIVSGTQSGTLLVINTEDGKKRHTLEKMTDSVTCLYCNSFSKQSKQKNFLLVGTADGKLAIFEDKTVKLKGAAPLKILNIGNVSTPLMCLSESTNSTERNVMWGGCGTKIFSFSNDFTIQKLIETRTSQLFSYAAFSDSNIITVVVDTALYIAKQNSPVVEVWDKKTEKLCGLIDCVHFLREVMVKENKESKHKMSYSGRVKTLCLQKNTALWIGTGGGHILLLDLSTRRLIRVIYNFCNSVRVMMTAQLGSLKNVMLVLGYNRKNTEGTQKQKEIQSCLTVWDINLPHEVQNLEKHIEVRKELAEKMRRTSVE
T2 sequence (Q5S007 whole entry): as the sequence (Q5S007 whole entry G2019S) above, with S2019G counted along it

Row | Structure (SMILES) | IC50 (LRRK2 G2019S) [nM] | IC50 (LRRK2 WT; class symbols) [nM] | IC50 (LRRK2 WT; numeric bound) [nM]
1 | N#Cc1nc2c(o1)CCC[C@@H]2Nc1ccc2[nH]nc(-c3cnco3)c2c1 (single isomer, unassigned) [Example 35, enantiomer 1, 4-((3-(Oxazol-5-yl)-1H-indazol-5-yl)amino)-4,5,6,7-tetrahydrobenzo[d]oxazole-2-carbonitrile] | < 100 | < 100 | 
2 | N#Cc1nc2c(o1)CCC[C@@H]2Nc1ccc2[nH]nc(-c3cnco3)c2c1 (single isomer, unassigned) [Example 35, enantiomer 2, 4-((3-(Oxazol-5-yl)-1H-indazol-5-yl)amino)-4,5,6,7-tetrahydrobenzo[d]oxazole-2-carbonitrile] | 100 to 1000 | 100 to 1000 | 
3 | N#Cc1nc2c(o1)CCC2Nc1ccc2[nH]nc(-c3cnco3)c2c1 (single isomer, unassigned) [Example 36, enantiomer 1, 4-((3-(Oxazol-5-yl)-1H-indazol-5-yl)amino)-5,6-dihydro-4H-cyclopenta[d]oxazole-2-carbonitrile] | 100 to 1000 | 1000 to 10000 | 
4 | N#Cc1nc2c(o1)CCC2Nc1ccc2[nH]nc(-c3cnco3)c2c1 (single isomer, unassigned) [Example 36, enantiomer 2, 4-((3-(Oxazol-5-yl)-1H-indazol-5-yl)amino)-5,6-dihydro-4H-cyclopenta[d]oxazole-2-carbonitrile] | < 100 | < 100 | 
5 | N#Cc1cccc2c1[C@@H](Oc1ccc3[nH]nc(-c4cnco4)c3c1)CC2 (single isomer, unassigned) [Example 37, enantiomer 1, 3-((3-(Oxazol-5-yl)-1H-indazol-5-yl)oxy)-2,3-dihydro-1H-indene-4-carbonitrile] | < 100 | < 100 | 
6 | N#Cc1ccc2c(c1)CCC[C@@H]2Oc1ccc2[nH]nc(-c3ccnc(N4CCOCC4)c3)c2c1 (single isomer, unassigned) [Example 39, enantiomer 1, 5-((3-(2-Morpholinopyridin-4-yl)-1H-indazol-5-yl)oxy)-5,6,7,8-tetrahydronaphthalene-2-carbonitrile] | < 100 | < 100 | 
7 | COc1cc(-c2n[nH]c3ccc(N[C@H]4CCc5cc(C#N)ccc54)cc23)ccn1 (single isomer, unassigned) [Example 40, enantiomer 1, 1-((3-(2-Methoxypyridin-4-yl)-1H-indazol-5-yl)amino)-2,3-dihydro-1H-indene-5-carbonitrile] | < 100 | 100 to 1000 | 
8 | N#Cc1cc2c(nn1)[C@@H](Oc1ccc3[nH]nc(-c4cnco4)c3c1)CC2 (single isomer, unassigned) [Example 41, enantiomer 1, 7-((3-(Oxazol-5-yl)-1H-indazol-5-yl)oxy)-6,7-dihydro-5H-cyclopenta[c]pyridazine-3-carbonitrile] | < 100 | < 100 | 
9 | N#Cc1ccc2c(c1)CC(F)(F)[C@@H]2Nc1ccc2[nH]nc(-c3cnco3)c2c1 (single isomer, unassigned) [Example 42, enantiomer 1, 2,2-Difluoro-1-((3-(oxazol-5-yl)-1H-indazol-5-yl)amino)-2,3-dihydro-1H-indene-5-carbonitrile] | < 100 | < 100 | 

Other lines, results leading:

Row | IC50 (LRRK2 G2019S) [nM] | IC50 (LRRK2 WT; class symbols) [nM] | IC50 (LRRK2 WT; numeric bound) [nM] | Structure (SMILES)
10 | < 100 | 100 to 1000 |  | Cc1n[nH]c2ccc(N[C@H]3CCCc4cc(C#N)ccc43)cc12 (single isomer, unassigned) [Example 43, enantiomer 1, 5-((3-Methyl-1H-indazol-5-yl)amino)-5,6,7,8-tetrahydronaphthalene-2-carbonitrile]
11 | 100 to 1000 | 1000 to 10000 |  | Cc1n[nH]c2ccc(N[C@H]3CCCc4cc(C#N)ccc43)cc12 (single isomer, unassigned) [Example 43, enantiomer 2, 5-((3-Methyl-1H-indazol-5-yl)amino)-5,6,7,8-tetrahydronaphthalene-2-carbonitrile]
12 | < 100 | < 100 |  | N#Cc1ccc2c(c1)CCC[C@@H]2Nc1ccc2[nH]nc(-c3cncs3)c2c1 (single isomer, unassigned) [Example 44, 5-((3-(Thiazol-5-yl)-1H-indazol-5-yl)amino)-5,6,7,8-tetrahydronaphthalene-2-carbonitrile]
13 | 1000 to 10000 |  | > 10000 | N#Cc1ccc2c(c1)CCC[C@@H]2Nc1ccc2[nH]nc(C3CCCCC3)c2c1 (single isomer, unassigned) [Example 45, 5-((3-Cyclohexyl-1H-indazol-5-yl)amino)-5,6,7,8-tetrahydronaphthalene-2-carbonitrile]
14 | 100 to 1000 |  | > 10000 | Cn1cccc(-c2n[nH]c3ccc(N[C@H]4CCCc5cc(C#N)ccc54)cc23)c1=O (single isomer, unassigned) [Example 46, 5-((3-(1-Methyl-2-oxo-1,2-dihydropyridin-3-yl)-1H-indazol-5-yl)amino)-5,6,7,8-tetrahydronaphthalene-2-carbonitrile]
15 | 100 to 1000 | 100 to 1000 |  | N#Cc1nc2c(s1)[C@@H](Nc1ccc3[nH]nc(-c4cnco4)c3c1)CCC2 (single isomer, unassigned) [Example 47, enantiomer 1, 7-((3-(Oxazol-5-yl)-1H-indazol-5-yl)amino)-4,5,6,7-tetrahydrobenzo[d]thiazole-2-carbonitrile]
16 | < 100 | < 100 |  | N#Cc1nc2c(s1)[C@@H](Nc1ccc3[nH]nc(-c4cnco4)c3c1)CCC2 (single isomer, unassigned) [Example 47, enantiomer 2, 7-((3-(Oxazol-5-yl)-1H-indazol-5-yl)amino)-4,5,6,7-tetrahydrobenzo[d]thiazole-2-carbonitrile]
17 | < 100 | < 100 |  | N#Cc1cnc2c(c1)C1CC1[C@@H]2Nc1ccc2[nH]nc(-c3cnco3)c2c1 (single isomer, unassigned) [Example 48, enantiomer 1, 6-((3-(Oxazol-5-yl)-1H-indazol-5-yl)amino)-4b,5,5a,6-tetrahydrocyclopropa[3,4]cyclopenta[1,2-b]pyridine-3-carbonitrile]
18 | < 100 | < 100 |  | N#Cc1cnc2c(c1)CCC[C@@H]2Nc1ccc2[nH]nc(-c3cnn(C(F)F)c3)c2c1 (single isomer, unassigned) [Example 49, enantiomer 1, 8-((3-(1-(Difluoromethyl)-1H-pyrazol-4-yl)-1H-indazol-5-yl)amino)-5,6,7,8-tetrahydroquinoline-3-carbonitrile]
19 | < 100 | 100 to 1000 |  | N#Cc1cnc2c(c1)CCC[C@@H]2Nc1ccc2[nH]nc(-c3cnn(C(F)F)c3)c2c1 (single isomer, unassigned) [Example 49, enantiomer 2, 8-((3-(1-(Difluoromethyl)-1H-pyrazol-4-yl)-1H-indazol-5-yl)amino)-5,6,7,8-tetrahydroquinoline-3-carbonitrile]
20 | < 100 | < 100 |  | Cc1c(C#N)ccc2c1CC[C@@H]2Oc1ccc2[nH]nc(-c3cnn(C(F)F)c3)c2c1 (single isomer, unassigned) [Example 50, enantiomer 1, 1-((3-(1-(Difluoromethyl)-1H-pyrazol-4-yl)-1H-indazol-5-yl)oxy)-4-methyl-2,3-dihydro-1H-indene-5-carbonitrile]
21 | 100 to 1000 | < 100 |  | Cc1c(C#N)ccc2c1CC[C@@H]2Oc1ccc2[nH]nc(-c3cnn(C(F)F)c3)c2c1 (single isomer, unassigned) [Example 50, enantiomer 2, 1-((3-(1-(Difluoromethyl)-1H-pyrazol-4-yl)-1H-indazol-5-yl)oxy)-4-methyl-2,3-dihydro-1H-indene-5-carbonitrile]
